System: Culture A80789
Experiment: Antibiotic sensitivity disc test on the producing culture
Assay type: cell-based, Streptomyces hygroscopicus
Conditions: ISP No. 2 agar
Description: Resistance to antibiotics was measured by padding antibiotic sensitivity discs onto the surface of seeded ISP No. 2 agar plates. Resistance was scored as (+) when no zone of inhibition was observed and as (-) when a zone of inhibition was observed.

| Compound | Resistance of culture to antibiotic (disc 10 mcg) | Resistance of culture to antibiotic (disc 30 mcg) | other results |
| --- | --- | --- | --- |
| CO[C@H]1/C=C/O[C@@]2(C)Oc3c(C)c(O)c4c(O)c(c(/C=N/N5CCN(C)CC5)c(O)c4c3C2=O)NC(=O)/C(C)=C\C=C\[C@H](C)[C@H](O)[C@@H](C)[C@@H](O)[C@@H](C)[C@H](OC(C)=O)[C@@H]1C [rifampin] | – | – | Resistance of culture to antibiotic (disc 5 mcg): resistant |
| [H]/N=C(/N)N[C@H]1[C@H](O)[C@@H](O)[C@H](O[C@@H]2O[C@@H](C)[C@](O)(C=O)[C@H]2O[C@@H]2O[C@@H](CO)[C@H](O)[C@@H](O)[C@@H]2NC)[C@@H](N/C(N)=N\[H])[C@@H]1O [streptomycin] | sensitive | – | – |
| CN(C)[C@@H]1C(=O)C(C(N)=O)=C(O)[C@@]2(O)C(=O)C3=C(O)c4c(O)cccc4[C@@](C)(O)[C@H]3C[C@@H]12 [tetracycline] | – | sensitive | – |
| NC[C@H]1O[C@H](O[C@H]2[C@H](O)[C@@H](O[C@H]3O[C@H](CO)[C@@H](O)[C@H](N)[C@H]3O)[C@H](N)C[C@@H]2N)[C@H](N)C[C@@H]1O [tobramycin] | sensitive | – | – |
| CN[C@H](CC(C)C)C(=O)N[C@H]1C(=O)N[C@@H](CC(N)=O)C(=O)N[C@H]2C(=O)N[C@H]3C(=O)N[C@H](C(=O)N[C@H](C(=O)O)c4cc(O)cc(O)c4-c4cc3ccc4O)[C@H](O)c3ccc(c(Cl)c3)Oc3cc2cc(c3O[C@@H]2O[C@H](CO)[C@@H](O)[C@H](O)[C@H]2O[C@H]2C[C@](C)(N)[C@H](O)[C@H](C)O2)Oc2ccc(cc2Cl)[C@H]1O [vancomycin] | – | sensitive | – |
| gentamicin | sensitive | – | – |
| neomycin | – | sensitive | – |

From patent publication US5043353A, “A80789 polyether antibiotic” (Eli Lilly and Company, priority 1989, dated 1991)
